# In patent publication US20030135033A1, “Compounds and methods for the identification and/ or validation of a target” (priority 2002, published 2003):
# Key:
# PTEN mRNA = assay: Immunoblot of PTEN and phosphorylated Akt after GeneBloc transfection of HeLa cells; format: cell-based, human; conditions: 30 nM, 48 h
# Procedure: More particularly, HeLa cells (380.000 cells/plate) and PC-3 cells (450.000 cells/plate) were transfected in parallel on 10 cm plates. Each cell line was treated for 48 h in duplicate samples with 30 nM of PTEN GeneBloc 53 or GBC. The cell extracts were analyzed by immunoblotting for the relative amounts of p110, PTEN and phosphorylated Akt (P*-Akt) as indicated on the right. The band which migrates just above the PTEN signal was caused by unspecific reaction of the secondary antibody.
# More particularly, a schematic pathway with PTEN inhibiting PI-3K activity is shown which would normally phosphorylate Akt thus leading to proliferation, survival and migration of HeLa cells as a model system for PTEN +/+ cells. FIG. 9 B presents the Western immunoblot analysis of an experiment studying the influence of PTEN specific antisense oligonucleotide or a control antisense nucleotide designated as mismatch GeneBloc™. PTEN is only present in the control sample, but is absent when PTEN-specific antisense oligonucleotides are used. The successful knockdown of PTEN causes phosphorylation of Akt, indicative of induction of the signalling pathway. […] Growth on matrigel is used as a surrogate in vitro assay for metastatic or invasive cell growth. The cells treated with PTEN third generation antisense oligonucleotide (“PTEN GeneBloc™”) shown in FIG. 9C have a significant growth advantage over the control-treated cells.
# Transfections were carried out in 96 well or 10-cm plates (at 30% to 50% confluency) by using various cationic lipids such as Oligofectamine, Lipofectamine (Life Technologies), NC388 (Ribozyme Pharmaceuticals, Inc., Boulder, CO), or FuGene 6 (Roche) according to the manufacturer's instructions. […]
# Cells were washed twice with cold phosphate-buffered saline and lysed at 4° C. in lysis buffer containing 20 mM Tris (pH 7.5), 137 mM NaCl, 15% (vol/vol) glycerol, 1% (vol/vol) Nonidet P-40 (NP-40), 2 mM phenylmethylsulfonyl fluoride, […], 20 mM leupeptin, 2 mM benzamidine, 1 mM sodium vanadate, 25 mM […]-glycerol phosphate, 50 mM NaF and 10 mM NaPPi. Lysates were cleared by centrifugation at 14,000× g for 5 minutes and aliquots of the lysates were analyzed for protein expression by Western-blotting: Samples were separated by SDS-PAGE and transferred to nitrocellulose-filters (Schleicher & Schuell). […] Bound antibody was detected using anti-mouse- or anti-rabbit-conjugated horse radish peroxidase (Transduction Laboratories, BD) in TBST, washed, and developed using the SuperSignal West Dura (Pierce) or ECL (Amersham) chemoluminescence substrates.
# The effect of GeneBloc induced transient knock down of PTEN expression was to be compared to the loss of PTEN function in human tumor cells. […] After 2 days the cell extracts were analyzed by Western-blotting. […]
# 3Y1 cells = assay: UV-induced apoptosis in 3Y1 cells after GeneBloc treatment (cleaved caspase 3); format: cell-based, rat; conditions: 48 h GeneBloc treatment, UV irradiation
# From the text: Activation of the P13K pathway interferes with caspase-mediated apoptosis through Akt-activation. Apoptotic stimuli may either be cytokines like TNF, or UV-irradiation. In the present example of which the results of a Western blot analysis are shown in FIG. 7B, UV-irradiation was used as to induce apoptosis. PTEN is an inhibitor of PI-3K action. […] Activated Akt blocks caspases-mediated apoptosis. Apoptosis was monitored by the presence of cleaved Caspase 3.
# If knock down of PTEN expression mediated by third generation antisense molecules (GeneBlocs) results in a functional activation of PI 3-kinase signalling, then increased phosphorylation and activation of Akt should interfere with the effects of apoptotic stimuli. […] It was previously shown that rat embryo fibroblasts undergo apoptosis after UV irradiation and that this response can be inhibited by activation of the PI 3-kinase pathway, and specifically by activated Akt (Kulik, G., Klippel, A. and Weber, M. J. (1997). Antiapoptotic signalling by the insulin-like growth factor I receptor, phosphatidylinositol 3-kinase, and Akt. Mol Cell Biol 17, 1595-1606)). We exposed 3Y1 cells to UV light after 48 h GeneBloc treatment. 3 h after irradiation cell extracts were harvested and analyzed for the presence of cleaved caspase 3 which is indicative for apoptosis. […] Cells which were not exposed to UV light after transfection contained very little amounts of cleaved caspase 3.
substance,measurement,setting,value
"ucuccuuTTGTTTCTGcuaacga (UCUCCUUTTGTTTCTGCUAACGA; chemistry not fully specified) [PTEN 53, third generation antisense oligonucleotide (GeneBloc) against PTEN]",PTEN (immunoblot),PTEN mRNA,degradation of PTEN mRNA
same,phosphorylated Akt (P*-Akt) (immunoblot),PTEN mRNA,generation of phosphorylated Akt
same,PTEN (immunoblot),PTEN mRNA; listed as PTEN GeneBloc 53,strong reduction in PTEN protein
same,phosphorylated Akt (P*-Akt) (immunoblot),PTEN mRNA; listed as PTEN GeneBloc 53,substantial increase in Akt phosphorylation
same,phosphorylated Akt,3Y1 cells,phosphorylated Akt is generated
